Test results taken from EPA's ToxValDB 9.5.

Tested on: Rattus norvegicus
Conditions: oral
[1] = subchronic, gavage, M, Sprague-Dawley, Body Weight Changes: decrease, Gain decrease + Food Consumption: decrease + Hematology: RBC decrease, Hgb decrease, Hct decrease, Ret …

## CCC(C)=NO[Si](C)(ON=C(C)CC)ON=C(C)CC [Methyltri(2-butanoneoximyl)silane]
short-term, duration: 28 days, gavage, M, Wistar, Functional Observational Battery: Rearing decrease, Grip strength(fore and hind limb) decrease, Mean body temperature decrease + Body Weight…
  NOAEL: 10 mg/kg-day

## CC(CN1CCOCC1)OCCN1CCOCC1 (stereo not drawn) [Morpholine, 4-[2-[1-methyl-2-(4-morpholinyl)ethoxy]ethyl]-]
short-term, duration: 28 days, gavage, M/F, Clinical Observation: Salivation Ptosis Reddish pinna Swelling of pinna + Body Weight Changes: Body weight gain decrease + Food Consumption…
  NOEL: < 8 mg/kg-day

## CCn1cc(C(=O)O)c(=O)c2ccc(C)nc21 [Nalidixic acid]
subchronic, duration: 13 weeks, diet, M/F, Fischer 344, Deaths + Body Weight Changes: decrease + Food Consumption: decrease + Absolute Organ Weight: Liver increase + Relative Organ Weight: Liver …
  NOEL: 96 mg/kg-day

## NC(=O)N/N=C/c1ccc([N+](=O)[O-])o1 [Nitrofurazone]
subchronic, duration: 13 weeks, diet, M/F, Fischer 344, Body Weight Changes: decrease + Food Consumption: decrease + Absolute Organ Weight: Liver increase + Relative Organ Weight: Liver increase…
  NOEL: < 14.4 mg/kg-day

## CCCCCCCCC [Nonane]
subchronic, duration: 90 days, gavage, F, Fischer 344, Absolute Organ Weight: Liver increase, Lung increase, Adrenal increase, Spleen decrease, Ovary decrease + Histopathology: Alimentary tract: …
  NOAEL: 100 mg/kg-day

## ClCCCCCCCCCl [Octane, 1,8-dichloro-]
short-term, duration: 28 days, gavage, M/F, Sprague-Dawley, Deaths + Clinical Observation: Salivation + Functional Observational Battery: Grip strength (forelimb) decrease, Grip strength (hindlimb) …
  NOEL: < 40 mg/kg-day

## FC(F)(F)C1(F)C(F)(F)C(F)(F)C(F)(F)C(F)(F)C1(F)C(F)(F)F (stereo not drawn) [Perfluoro-1,2-dimethylcyclohexane]
subchronic, duration: 42 days, gavage, M, CD(SD), Hematology: HGB decrease, HCT decrease + Histopathology: Liver-Hypertrophy, hepatocyte, central
  NOEL: 300 mg/kg-day

## O=C(O)C(F)(F)C(F)(F)C(F)(F)C(F)(F)C(F)(F)C(F)(F)C(F)(F)C(F)(F)C(F)(F)C(F)(F)C(F)(F)C(F)(F)C(F)(F)C(F)(F)C(F)(F)C(F)(F)C(F)(F)F [Perfluorooctadecanoic acid]
[1]
  LOEL: 200 mg/kg-day
  NOEL: 40 mg/kg-day

## CC(CN1c2ccccc2Sc2ccccc21)N(C)C.Cl (stereo not drawn) [Promethazine hydrochloride]
subchronic, duration: 13 weeks, gavage, M/F, Fischer 344, Deaths + Clinical Observation: Hunched posture Labored respiration Abnormal respiratory sounds + Body Weight Changes: decrease + Absolute …
  NOEL: 3.7 mg/kg-day

## CC(=O)/C=C/C=C(\C)CCC=C(C)C [Pseudoionone]
short-term, duration: 28 days, gavage, M/F, Wistar Han, Clinical Observation: Salivation + Body Weight Changes: Weight gain decrease + Hematology: RBC increase, HCT increase, PLT increase, APTT …
  NOAEL: 50 mg/kg-day

## Br.CN1[C@@H]2CC(OC(=O)[C@H](CO)c3ccccc3)C[C@H]1[C@@H]1O[C@@H]12.O.O.O (stereo partly drawn) [Scopolamine hydrobromide trihydrate]
chronic, duration: 14 weeks, gavage, M/F, Fischer 344, Deaths + Clinical Observation: Pupillary dilation Reddening of eyes Hypoactivity + Body Weight Changes: decrease + Hematology: Hgb increase…
  NOEL: < 15 mg/kg-day

## CCCCCCC[CH2][Sn]([Cl])([Cl])[Cl] [Stannane, trichlorooctyl-]
subchronic, duration: 13 weeks, diet, M/F, Wistar, Blood Chemistry: ALP increase + Absolute Organ Weight: Thymus decrease + Relative Organ Weight: Thymus decrease + Histopathology: Thymus- …
  NOAEL: 9.6 mg/kg-day
subchronic, duration: 13 weeks, diet, M/F, Wistar, Body Weight Changes: Mean body weight decrease + Food Consumption: decrease + Urinalysis: SG decrease + Hematology: HGB decrease, HCT …
  NOAEL: < 2.88 mg/kg-day

## CC(C)(c1cc(Br)c(OCCO)c(Br)c1)c1cc(Br)c(OCCO)c(Br)c1 [Tetrabromobisphenol A bis(2-hydroxyethyl) ether]
subchronic, gavage, M, Sprague-Dawley, Clinical Observation: Soft stool R + Hematology: Plt increase + Blood Chemistry: BUN increase + Necropsy: Cecum-Distention
  NOEL: 40 mg/kg-day

## CCCC[N+](CCCC)(CCCC)CCCC.[Br-] [Tetrabutylammonium bromide]
subchronic, gavage, M/F, Sprague-Dawley, Deaths + Clinical Observation: Reddish urine + Body Weight Changes: Gain decrease + Food Consumption: increase + Urinalysis: Light brown …
  NOEL: 60 mg/kg-day

## O=C1OC(=O)c2c(Cl)c(Cl)c(Cl)c(Cl)c21 [Tetrachlorophthalic anhydride]
subchronic, gavage, M/F, Fischer 344, Deaths + Body Weight Changes: decrease + Blood Chemistry: gamma-GTP increase, Glu decrease + Absolute Organ Weight: Spleen decrease, Right …
  NOEL: < 94 mg/kg-day

## c1ccc2c(c1)CCCC2 [Tetralin]
short-term, duration: 28 days, gavage, M/F, Wistar, Clinical Observation: Squatting position Closed eyes Reduced activity LethargyTonic convulsion Absence of auditory startle reflex + Body …
  NOAEL: 15 mg/kg-day

## Cn1c(=O)c2[nH]cnc2n(C)c1=O [Theophylline]
chronic, duration: 14 weeks, diet, F, Fischer 344, Absolute Organ Weight: Right kidney increase, Lung increase + Relative Organ Weight: Right kidney increase, Lungs increase + Histopathology…
  NOEL: < 75 mg/kg-day
chronic, duration: 14 weeks, diet, M/F, Fischer 344, Absolute Organ Weight: Right kidney increase, Lung increase + Relative Organ Weight: Right kidney increase, Lungs increase + Histopathology…
  NOEL: < 78 mg/kg-day
chronic, duration: 14 weeks, gavage, M/F, Fischer 344, Deaths + Absolute Organ Weight: Liver increase, Thymus decrease + Relative Organ Weight: Right kidney increase, Liver increase, Uterus …
  NOEL: < 37.5 mg/kg-day

## C=CCN(CC=C)CC=C [Triallylamine]
short-term, duration: 28 days, gavage, M/F, Sprague-Dawley, Clinical Observation: Locomotor activity decrease, Salivation + Functional Observational Battery: Hind limb grip strength decrease + Body …
  NOEL: 6 mg/kg-day

## Nc1nc(N)c2nc(-c3ccccc3)c(N)nc2n1 [Triamterene]
subchronic, duration: 13 weeks, diet, M/F, Fischer 344, Deaths + Body Weight Changes: decrease + Food Consumption: decrease + Histopathology: Kidney-Tubule degeneration Kidney-Cast Kidney-Tubule …
  NOEL: 14.4 mg/kg-day

## OCCOCCOCCO [Triethylene glycol]
subchronic, duration: 13 weeks, diet, M/F, Fischer 344, Body Weight Changes: Mean body weight decrease, Body weight gain decrease + Urinalysis: Urinalysis', 'Volume increase, pH decrease + …
  NOEL: 1920 mg/kg-day

## CO[Si](C)(OC)OC [Trimethoxymethylsilane]
short-term, duration: 28 days, gavage, M, Sprague-Dawley, Clinical Observation: Inactivity Salivation + Body Weight Changes: Body weight gain decrease + Food Consumption: decrease + Hematology: PT …
  NOAEL: 50 mg/kg-day

## CC(C)(C)OOC(=O)c1ccccc1 [tert-Butyl perbenzoate]
subchronic, gavage, M/F, Fischer 344, Deaths + Body Weight Changes: decrease + Food Consumption: decrease + Absolute Organ Weight: Spleen decrease, Forestomach increase>60 …
  NOEL: < 30 mg/kg-day

## CC(C)(C)c1cc(O)ccc1O [tert-Butylhydroquinone]
subchronic, duration: 13 weeks, diet, F, Fischer 344, Clinical Observation: Hair discoloration + Body Weight Changes: decrease + Food Consumption: decrease + Blood Chemistry: Bile acid increase…
  NOEL: 200 mg/kg-day
subchronic, duration: 13 weeks, diet, M/F, Fischer 344, Clinical Observation: Hair discoloration + Body Weight Changes: decrease + Food Consumption: decrease + Blood Chemistry: Bile acid increase…
  NOEL: < 240 mg/kg-day
